One test concerns the target T1, PI3Kγ (Homo sapiens, UniProt P48736).
T1 construct: host or cells: THP-1
Kind of test: PI3Kγ cellular assay in THP-1 cells (AKT pS473 AlphaLISA). It is filed as cell-based. Particulars: Table 1, rhMCP-1 stimulated AKT pS473, read-out: cellular potency (PI3Kγ IC50). Put shortly: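 Serum-starved THP-1 cells (1.8×10^5/well, serum-free DMEM) treated with compounds from 4 nM to 30 μM in 2% DMSO, then stimulated and lysed.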

In a further test the target is T2, PI3Kγ (p120γ) (Homo sapiens, UniProt P48736).
T2 construct: purchased Promega V1761
T2 sequence (P48736 whole entry): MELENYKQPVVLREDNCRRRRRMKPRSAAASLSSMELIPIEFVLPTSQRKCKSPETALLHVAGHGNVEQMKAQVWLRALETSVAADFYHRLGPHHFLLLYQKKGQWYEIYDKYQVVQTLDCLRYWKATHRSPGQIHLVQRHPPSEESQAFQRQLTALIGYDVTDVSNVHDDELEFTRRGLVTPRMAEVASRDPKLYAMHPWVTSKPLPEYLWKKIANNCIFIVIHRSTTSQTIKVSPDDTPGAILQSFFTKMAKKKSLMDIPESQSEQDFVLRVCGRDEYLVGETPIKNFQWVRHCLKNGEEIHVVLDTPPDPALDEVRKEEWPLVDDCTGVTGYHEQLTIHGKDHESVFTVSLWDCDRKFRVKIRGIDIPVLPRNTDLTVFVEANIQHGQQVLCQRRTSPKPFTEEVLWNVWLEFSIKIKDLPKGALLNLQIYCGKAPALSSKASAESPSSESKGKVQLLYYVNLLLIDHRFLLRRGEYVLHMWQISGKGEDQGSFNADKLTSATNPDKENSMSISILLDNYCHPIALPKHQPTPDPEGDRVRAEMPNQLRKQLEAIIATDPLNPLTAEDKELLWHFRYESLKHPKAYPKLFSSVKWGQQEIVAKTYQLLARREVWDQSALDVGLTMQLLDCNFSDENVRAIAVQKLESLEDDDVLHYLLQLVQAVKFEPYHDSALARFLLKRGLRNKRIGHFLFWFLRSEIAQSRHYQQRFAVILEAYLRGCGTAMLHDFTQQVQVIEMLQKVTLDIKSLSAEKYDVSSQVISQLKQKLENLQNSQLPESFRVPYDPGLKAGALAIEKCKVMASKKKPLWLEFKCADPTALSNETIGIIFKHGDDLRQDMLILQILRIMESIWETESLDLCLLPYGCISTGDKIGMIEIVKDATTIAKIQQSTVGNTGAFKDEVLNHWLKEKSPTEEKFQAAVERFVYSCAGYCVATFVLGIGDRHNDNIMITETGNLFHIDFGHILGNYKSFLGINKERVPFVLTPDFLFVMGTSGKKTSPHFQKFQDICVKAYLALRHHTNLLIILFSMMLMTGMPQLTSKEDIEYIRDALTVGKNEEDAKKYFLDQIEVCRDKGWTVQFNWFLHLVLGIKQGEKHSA
The experiment in a line: Inhibition of PI3K kinase activity (ADP Glo), PI3Kγ. Particulars: Table 1, p120γ, read-out: biochemical potency (PI3Kγ IC50). Summed up: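 Recombinant p120γ (8 nM, 2× stock) was preincubated with compound for 1 h at rt in HEPES pH 7.4, NaCl, MgCl2 and 0.05% BSA. Reaction was started with PIP2 (0.1 mg/ml, 2×) and ATP (50 μM, 2×) and ran 60 min at rt. ADP formed was read by ADP-Glo luminescence, and IC50 came from a 4-parameter fit.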

T1 sequence (P48736 whole entry): as above

With `CC(C)[C@H](CO)NC(=O)c1c(N)nn2ccc(-c3cc4c(c(NS(C)(=O)=O)c3)C(=O)N([C@@H](C)C3CC3)C4)nc12` [Example 96, 2-Amino-5-{2-[(1S)-1-cyclopropylethyl]-7-methanesulfonamido-1-oxo-2,3-dihydro-1H-isoindol-5-yl}-N-[(2R)-1-hydroxy-3-methylbutan-2-yl]pyrazolo[1,5-a]pyrimidine-3-carboxamide], the IC50 at PI3Kγ and on PI3Kγ (p120γ) was under 100 nM throughout.
On to `C[C@@H](C1CC1)N1Cc2cc(-c3ccn4nc(N)c(C(=O)N[C@@H](CO)C5CC5)c4n3)cc(NS(C)(=O)=O)c2C1=O` [Example 97, 2-Amino-N-((R)-1-cyclopropyl-2-hydroxyethyl)-5-(2-((S)-1-cyclopropylethyl)-7-(methylsulfonamido)-1-oxoisoindolin-5-yl)pyrazolo[1,5-a]pyrimidine-3-carboxamide], for which the IC50 at PI3Kγ and at PI3Kγ (p120γ) was under 100 nM in each case.
Regarding `C[C@@H](NC(=O)c1c(N)nn2ccc(-c3cc4c(c(NS(C)(=O)=O)c3)C(=O)N([C@@H](C)C3CC3)C4)nc12)c1cnn(C)c1` [Example 98, 2-Amino-5-{2-[(1S)-1-cyclopropylethyl]-7-methanesulfonamido-1-oxo-2,3-dihydro-1H-isoindol-5-yl}-N-[(1R)-1-(1-methyl-1H-pyrazol-4-yl)ethyl]pyrazolo[1,5-a]pyrimidine-3-carboxamide], the IC50 at PI3Kγ and on PI3Kγ (p120γ) was under 100 nM in each case.
Regarding `C[C@@H](C1CC1)N1Cc2cc(-c3ccn4nc(N)c(C(=O)Nc5cccnc5)c4n3)cc(NS(C)(=O)=O)c2C1=O` [Example 99, (S)-2-Amino-5-(2-(1-cyclopropylethyl)-7-(methylsulfonamido)-1-oxoisoindolin-5-yl)-N-(pyridin-3-yl)pyrazolo[1,5-a]pyrimidine-3-carboxamide], the IC50 at PI3Kγ and on PI3Kγ (p120γ) was under 100 nM in each case.
Consider `C[C@@H](C1CC1)N1Cc2cc(-c3ccn4nc(N)c(C(=O)Nc5ccncc5)c4n3)cc(NS(C)(=O)=O)c2C1=O` [Example 100, (S)-2-Amino-5-(2-(1-cyclopropylethyl)-7-(methylsulfonamido)-1-oxoisoindolin-5-yl)-N-(pyridin-4-yl)pyrazolo[1,5-a]pyrimidine-3-carboxamide], for which the IC50 on PI3Kγ and at PI3Kγ (p120γ) was under 100 nM in each case.
With `Cc1cc(NC(=O)c2c(N)nn3ccc(-c4cc5c(c(NS(C)(=O)=O)c4)C(=O)N([C@@H](C)C4CC4)C5)nc23)ccn1` [Example 101, (S)-2-Amino-5-(2-(1-cyclopropylethyl)-7-(methylsulfonamido)-1-oxoisoindolin-5-yl)-N-(2-methylpyridin-4-yl)pyrazolo[1,5-a]pyrimidine-3-carboxamide], the IC50 on PI3Kγ and on PI3Kγ (p120γ) was under 100 nM each time.
Take `Cc1cc(NC(=O)c2c(N)nn3ccc(-c4cc5c(c(NS(C)(=O)=O)c4)C(=O)N([C@@H](C)C4CC4)C5)nc23)cc(C)n1` [Example 102, (S)-2-Amino-5-(2-(1-cyclopropylethyl)-7-(methylsulfonamido)-1-oxoisoindolin-5-yl)-N-(2,6-dimethylpyridin-4-yl)pyrazolo[1,5-a]pyrimidine-3-carboxamide]: the IC50 on PI3Kγ and at PI3Kγ (p120γ) was under 100 nM each time.
Take `C[C@@H](C1CC1)N1Cc2cc(-c3ccn4nc(N)c(C(=O)Nc5ccc(C(C)(C)O)nc5)c4n3)cc(NS(C)(=O)=O)c2C1=O` [Example 103, 2-Amino-5-{2-[(1S)-1-cyclopropylethyl]-7-methanesulfonamido-1-oxo-2,3-dihydro-1H-isoindol-5-yl}-N-[6-(2-hydroxypropan-2-yl)pyridin-3-yl]pyrazolo[1,5-a]pyrimidine-3-carboxamide]: the IC50 at PI3Kγ and on PI3Kγ (p120γ) was under 100 nM each time.
In the case of `C[C@@H](C1CC1)N1Cc2cc(-c3ccn4nc(N)c(C(=O)Nc5ccccc5)c4n3)cc(NS(C)(=O)=O)c2C1=O` [Example 104, (S)-2-Amino-5-(2-(1-cyclopropylethyl)-7-(methylsulfonamido)-1-oxoisoindolin-5-yl)-N-phenylpyrazolo[1,5-a]pyrimidine-3-carboxamide], the IC50 at PI3Kγ and on PI3Kγ (p120γ) was under 100 nM in each case.

The values above are taken from patent publication US20230024302A1, “2,3,5-TRISUBSTITUTED PYRAZOLO[1,5-A]PYRIMIDINE COMPOUNDS” (Arcus Biosciences, Inc., priority 2019, published 2023).
